From patent US20230250083A1, “CRYSTALS” (NIPPON SHINYAKU CO., LTD., priority 2017, published 2023)

Experiments:
[1] = Crystallization experiment, operation procedure 4 (saturated solution, poor solvent added); type: physicochemical; set-up: key: —: The symbol “-” in Table 1 to Table 3 means that no precipitate was obtained
Description: Each of various solvents was added to the Form-I crystal of the present invention (several mg), crystals of the compound A were precipitated according to the following operation procedures, and the crystal form of the precipitated crystals was confirmed. The results of the operation procedures 1 to 3 are shown in Table 1 and Table 2, and the results of the operation procedure 4 are shown in Table 3. The symbol “-” in Table 1 to Table 3 means that no precipitate was obtained. Each of various dissolving solvents (minimum volume) was added to the Form-I crystal of the present invention to prepare a saturated solution. Various poor solvents were added thereto.

[2] = Crystallization experiment, operation procedure 1 (suspension stirred 2 days, cooled and warmed between 4 to 40° C.); type: physicochemical; set-up: key: —: The symbol “-” in Table 1 to Table 3 means that no precipitate was obtained
Description: (§1) Each of various solvents was added to the Form-I crystal of the present invention (several mg), crystals of the compound A were precipitated according to the following operation procedures, and the crystal form of the precipitated crystals was confirmed. The results of the operation procedures 1 to 3 are shown in Table 1 and Table 2, and the results of the operation procedure 4 are shown in Table 3. The symbol “-” in Table 1 to Table 3 means that no precipitate was obtained.
Each of various solvents (50 μL) was added to the Form-I crystal of the present invention to make a suspension thereof, and the suspension was stirred for 2 days while repeatedly being cooled and warmed between 4 to 40° C.

[3] = Crystallization experiment, operation procedure 2 (dissolved at 40° C., cooled to 4° C., stirred 3 days); type: physicochemical; set-up: key: —: The symbol “-” in Table 1 to Table 3 means that no precipitate was obtained
Description: as §1
Each of various solvents (50 μL) was added to the Form-I crystal of the present invention to dissolve the Form-I crystal of the present invention at 40° C. […] The solution was cooled to 4° C. and stirred for 3 days.

[4] = Crystallization experiment, operation procedure 3 (dissolved at 40° C., solvent gradually distilled off at room temperature); type: physicochemical; set-up: key: —: The symbol “-” in Table 1 to Table 3 means that no precipitate was obtained
Description: as §1
Each of various solvents (50 μL) was added to the Form-I crystal of the present invention to dissolve the Form-I crystal of the present invention at 40° C. […] The solvent was gradually distilled off at room temperature.

[5] = target: JAK2 tyrosine kinase (Homo sapiens, UniProt O60674); conditions: see PATENT DOCUMENT 1; cited from earlier work
[6] = solvent 1,4-dioxane:water 80:20
[7] = solvent acetonitrile:dimethyl sulfoxide 80:20
[8] = solvent acetonitrile:water 80:20
[9] = solvent acetonitrile:water 95:5
[10] = solvent ethanol:dimethyl sulfoxide 80:20
[11] = solvent tetrahydrofuran:water 20:80
[12] = solvent tetrahydrofuran:water 95:5

Chain of JAK2 tyrosine kinase (O60674 whole entry): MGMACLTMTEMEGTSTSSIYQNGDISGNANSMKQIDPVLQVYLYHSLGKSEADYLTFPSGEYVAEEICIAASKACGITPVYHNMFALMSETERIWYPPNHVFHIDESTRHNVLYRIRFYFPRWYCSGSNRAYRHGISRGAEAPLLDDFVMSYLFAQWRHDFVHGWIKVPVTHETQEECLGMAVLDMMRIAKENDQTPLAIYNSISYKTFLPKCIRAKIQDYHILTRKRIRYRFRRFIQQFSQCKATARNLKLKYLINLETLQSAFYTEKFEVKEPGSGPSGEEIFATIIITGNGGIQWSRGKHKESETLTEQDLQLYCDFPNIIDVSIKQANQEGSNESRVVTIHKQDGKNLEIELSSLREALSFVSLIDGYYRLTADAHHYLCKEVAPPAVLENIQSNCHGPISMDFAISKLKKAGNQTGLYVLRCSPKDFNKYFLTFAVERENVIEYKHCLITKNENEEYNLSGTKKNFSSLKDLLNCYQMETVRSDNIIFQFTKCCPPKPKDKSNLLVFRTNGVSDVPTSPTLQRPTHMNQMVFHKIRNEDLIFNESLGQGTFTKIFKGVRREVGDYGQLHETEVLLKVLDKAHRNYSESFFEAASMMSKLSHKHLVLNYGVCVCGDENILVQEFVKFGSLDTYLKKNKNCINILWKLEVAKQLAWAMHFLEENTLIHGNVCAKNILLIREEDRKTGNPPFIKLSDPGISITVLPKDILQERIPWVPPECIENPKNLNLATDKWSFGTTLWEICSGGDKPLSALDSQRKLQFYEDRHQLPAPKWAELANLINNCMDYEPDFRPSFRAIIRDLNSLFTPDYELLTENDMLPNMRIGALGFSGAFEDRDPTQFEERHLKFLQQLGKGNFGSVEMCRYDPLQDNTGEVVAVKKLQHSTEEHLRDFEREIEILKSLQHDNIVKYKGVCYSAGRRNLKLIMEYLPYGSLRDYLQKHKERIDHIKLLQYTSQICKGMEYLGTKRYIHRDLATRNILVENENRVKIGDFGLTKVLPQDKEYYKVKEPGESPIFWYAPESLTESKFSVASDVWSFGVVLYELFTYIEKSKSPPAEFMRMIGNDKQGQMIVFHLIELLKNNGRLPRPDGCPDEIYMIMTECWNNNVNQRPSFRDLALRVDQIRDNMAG

C[C@H](Nc1cc(-c2cnn(C)c2)cc(Nc2cnccn2)n1)c1ccc(F)cc1.O=C(O)/C=C\C(=O)O [compound A, (S)-N^2-[1-(4-fluorophenyl)ethyl]-4-(1-methyl-1H-pyrazol-4-yl)-N^6-(pyrazin-2-yl)pyridine-2,6-diamine maleate]
Crystal form ([1]; dissolving solvent 2-methoxyethanol, poor solvent cyclohexane): Form-I | Crystal form ([1]; dissolving solvent 2-methoxyethanol, poor solvent isopropyl acetate): Form-I | Crystal form ([1]; dissolving solvent 2-methoxyethanol, poor solvent t-butyl methyl ether): Form-I | Crystal form ([1]; dissolving solvent 2-methoxyethanol, poor solvent water): — | Crystal form ([1]; dissolving solvent N,N-dimethylformamide, poor solvent 2-propanol): Form-I | Crystal form ([1]; dissolving solvent N,N-dimethylformamide, poor solvent diethyl ether): Form-I | Crystal form ([1]; dissolving solvent N,N-dimethylformamide, poor solvent isopropyl acetate): Form-I | Crystal form ([1]; dissolving solvent N,N-dimethylformamide, poor solvent t-butyl methyl ether): Form-I | Crystal form ([1]; dissolving solvent N,N-dimethylformamide, poor solvent water): Form-I | Crystal form ([1]; dissolving solvent N-methylpyrrolidone, poor solvent 2-propanol): Form-I | Crystal form ([1]; dissolving solvent N-methylpyrrolidone, poor solvent ethyl acetate): Form-I | Crystal form ([1]; dissolving solvent N-methylpyrrolidone, poor solvent toluene): Form-I | Crystal form ([1]; dissolving solvent N-methylpyrrolidone, poor solvent water): Form-I | Crystal form ([1]; dissolving solvent acetone:water 80:20, poor solvent 2-propanol): — | Crystal form ([1]; dissolving solvent acetone:water 80:20, poor solvent water): Form-II | Crystal form ([1]; dissolving solvent dimethyl sulfoxide, poor solvent 2-propanol): Form-I | Crystal form ([1]; dissolving solvent dimethyl sulfoxide, poor solvent diisopropyl ether): — | Crystal form ([1]; dissolving solvent dimethyl sulfoxide, poor solvent ethyl acetate): Form-I | Crystal form ([1]; dissolving solvent dimethyl sulfoxide, poor solvent t-butyl methyl ether): Form-I | Crystal form ([1]; dissolving solvent dimethyl sulfoxide, poor solvent water): — | Crystal form ([1]; dissolving solvent tetrahydrofuran:water 80:20, poor solvent water): Form-I | Crystal form ([1]; dissolving solvent trifluoroethanol, poor solvent cyclohexane): — | Crystal form ([1]; dissolving solvent trifluoroethanol, poor solvent diisopropyl ether): Form-I | Crystal form ([1]; dissolving solvent trifluoroethanol, poor solvent water): — | crystal form of the precipitated crystals ([2]; solvent 1,4-dioxane): Form-I | crystal form of the precipitated crystals [2, 6]: Form-I | crystal form of the precipitated crystals ([2]; solvent 1-butanol): Form-I | crystal form of the precipitated crystals ([2]; solvent 1-methoxy-2 -propanol): Form-I | crystal form of the precipitated crystals ([2]; solvent 1-propanol): Form-I | crystal form of the precipitated crystals ([2]; solvent 2-methoxyethanol): Form-I | crystal form of the precipitated crystals ([2]; solvent 2-methoxyethyl ether): Form-I | crystal form of the precipitated crystals ([2]; solvent 2-propanol): Form-I | crystal form of the precipitated crystals ([2]; solvent 2-propanol:water 80:20): Form-I | crystal form of the precipitated crystals ([2]; solvent 2-propanol:water 95:5): Form-I | crystal form of the precipitated crystals ([2]; solvent N,N-dimethylformamide): — | crystal form of the precipitated crystals ([2]; solvent N-methylpyrrolidone): — | crystal form of the precipitated crystals ([2]; solvent acetone): Form-I | crystal form of the precipitated crystals ([2]; solvent acetone:water 20:80): Form-I | crystal form of the precipitated crystals ([2]; solvent acetone:water 80:20): Form-I | crystal form of the precipitated crystals ([2]; solvent acetone:water 95:5): Form-I | crystal form of the precipitated crystals ([2]; solvent acetonitrile): Form-I | crystal form of the precipitated crystals [2, 7]: Form-I | crystal form of the precipitated crystals [2, 8]: Form-I | crystal form of the precipitated crystals [2, 9]: Form-I | crystal form of the precipitated crystals ([2]; solvent chlorobenzene): Form-I | crystal form of the precipitated crystals ([2]; solvent chloroform): Form-I | crystal form of the precipitated crystals ([2]; solvent cyclohexane): Form-I | crystal form of the precipitated crystals ([2]; solvent cyclohexanone): Form-I | crystal form of the precipitated crystals ([2]; solvent dichloromethane): Form-I | crystal form of the precipitated crystals ([2]; solvent dimethyl carbonate): Form-I | crystal form of the precipitated crystals ([2]; solvent dimethyl sulfoxide): — | crystal form of the precipitated crystals ([2]; solvent ethanol): Form-I | crystal form of the precipitated crystals [2, 10]: Form-I | crystal form of the precipitated crystals ([2]; solvent ethanol:water 20:80): Form-I | crystal form of the precipitated crystals ([2]; solvent ethyl acetate): Form-I | crystal form of the precipitated crystals ([2]; solvent heptane): Form-I | crystal form of the precipitated crystals ([2]; solvent isopropyl acetate): Form-I | crystal form of the precipitated crystals ([2]; solvent isopropyl ether): Form-I | crystal form of the precipitated crystals ([2]; solvent methanol): Form-I | crystal form of the precipitated crystals ([2]; solvent methanol:water 80:20): Form-I | crystal form of the precipitated crystals ([2]; solvent methanol:water 95:5): Form-I | crystal form of the precipitated crystals ([2]; solvent methyl acetate): Form-I | crystal form of the precipitated crystals ([2]; solvent methyl ethyl ketone): Form-I | crystal form of the precipitated crystals ([2]; solvent methyl isobutyl ketone): Form-I | crystal form of the precipitated crystals ([2]; solvent nitromethane): Form-I | crystal form of the precipitated crystals ([2]; solvent t-butyl methyl ether): Form-I | crystal form of the precipitated crystals ([2]; solvent tetrahydrofuran): Form-I | crystal form of the precipitated crystals [2, 11]: Form-I | crystal form of the precipitated crystals [2, 12]: Form-I | crystal form of the precipitated crystals ([2]; solvent toluene): Form-I | crystal form of the precipitated crystals ([2]; solvent trifluoroethanol): — | crystal form of the precipitated crystals ([2]; solvent water): Form-I | crystal form of the precipitated crystals ([3]; solvent 1,4-dioxane): solvate | crystal form of the precipitated crystals [3, 6]: — | crystal form of the precipitated crystals ([3]; solvent 1-butanol): — | crystal form of the precipitated crystals ([3]; solvent 1-methoxy-2 -propanol): — | crystal form of the precipitated crystals ([3]; solvent 1-propanol): Form-I | crystal form of the precipitated crystals ([3]; solvent 2-methoxyethanol): — | crystal form of the precipitated crystals ([3]; solvent 2-methoxyethyl ether): — | crystal form of the precipitated crystals ([3]; solvent 2-propanol): — | crystal form of the precipitated crystals ([3]; solvent 2-propanol:water 80:20): — | crystal form of the precipitated crystals ([3]; solvent 2-propanol:water 95:5): — | crystal form of the precipitated crystals ([3]; solvent N,N-dimethylformamide): — | crystal form of the precipitated crystals ([3]; solvent N-methylpyrrolidone): — | crystal form of the precipitated crystals ([3]; solvent acetone): Form-I | crystal form of the precipitated crystals ([3]; solvent acetone:water 20:80): — | crystal form of the precipitated crystals ([3]; solvent acetone:water 80:20): — | crystal form of the precipitated crystals ([3]; solvent acetone:water 95:5): — | crystal form of the precipitated crystals ([3]; solvent acetonitrile): — | crystal form of the precipitated crystals [3, 7]: — | crystal form of the precipitated crystals [3, 8]: — | crystal form of the precipitated crystals [3, 9]: — | crystal form of the precipitated crystals ([3]; solvent chlorobenzene): — | crystal form of the precipitated crystals ([3]; solvent chloroform): — | crystal form of the precipitated crystals ([3]; solvent cyclohexane): — | crystal form of the precipitated crystals ([3]; solvent cyclohexanone): — | crystal form of the precipitated crystals ([3]; solvent dichloromethane): — | crystal form of the precipitated crystals ([3]; solvent dimethyl carbonate): — | crystal form of the precipitated crystals ([3]; solvent dimethyl sulfoxide): — | crystal form of the precipitated crystals ([3]; solvent ethanol): Form-I | crystal form of the precipitated crystals [3, 10]: Form-I | crystal form of the precipitated crystals ([3]; solvent ethanol:water 20:80): — | crystal form of the precipitated crystals ([3]; solvent ethyl acetate): — | crystal form of the precipitated crystals ([3]; solvent heptane): — | crystal form of the precipitated crystals ([3]; solvent isopropyl acetate): — | crystal form of the precipitated crystals ([3]; solvent isopropyl ether): — | crystal form of the precipitated crystals ([3]; solvent methanol): Form-I | crystal form of the precipitated crystals ([3]; solvent methanol:water 80:20): Form-I | crystal form of the precipitated crystals ([3]; solvent methanol:water 95:5): — | crystal form of the precipitated crystals ([3]; solvent methyl acetate): — | crystal form of the precipitated crystals ([3]; solvent methyl ethyl ketone): — | crystal form of the precipitated crystals ([3]; solvent methyl isobutyl ketone): — | crystal form of the precipitated crystals ([3]; solvent nitromethane): — | crystal form of the precipitated crystals ([3]; solvent t-butyl methyl ether): — | crystal form of the precipitated crystals ([3]; solvent tetrahydrofuran): — | crystal form of the precipitated crystals [3, 11]: — | crystal form of the precipitated crystals [3, 12]: — | crystal form of the precipitated crystals ([3]; solvent toluene): — | crystal form of the precipitated crystals ([3]; solvent trifluoroethanol): — | crystal form of the precipitated crystals ([3]; solvent water): — | crystal form of the precipitated crystals ([4]; solvent acetone): — | crystal form of the precipitated crystals ([4]; solvent acetonitrile): — | crystal form of the precipitated crystals ([4]; solvent dimethyl sulfoxide): Form-I | crystal form of the precipitated crystals ([4]; solvent nitromethane): — | JAK2 tyrosine kinase inhibitory action [5]: excellent JAK2 tyrosine kinase inhibitory action
